Measurements taken from ChEMBL document CHEMBL1136657, “Novel ether derivatives of mannopeptimycin glycopeptide antibiotic” (2003).
Converted amounts (≈) assume the structure as drawn.

Tests used:
Assay type in all cases: functional
[1] = test system: Staphylococcus aureus; assay: Minimum inhibitory concentration against Staphylococcus aureus (MSSA) was determined; Range is 1-4 ug/mL
[2] = test system: Mus musculus; assay: In vivo activity against Staphylococcus aureus smith was determined after iv administration in mice; details: Mus musculus, iv; read-out: ED50
[3] = test system: Staphylococcus aureus; assay: Minimum inhibitory concentration against Staphylococcus aureus (MRSA) was determined; Range is […] ug/mL
[4] = test system: Enterococcus faecium; assay: Minimum inhibitory concentration against Enterococcus faecium was determined; Range is 2-4 ug/mL
[5] = test system: Staphylococcus aureus; assay: Minimum inhibitory concentration against Staphylococcus aureus (MRCNS) was determined; Range is 0.25-1 ug/mL
[6] = test system: Staphylococcus aureus; assay: Minimum inhibitory concentration against Staphylococcus aureus (MSCNS) was determined; Range is <=0.12-0.5 ug/mL
[7] = test system: Enterococcus faecalis; assay: Minimum inhibitory concentration against Enterococcus faecalis was determined; Range is 2-4 ug/mL
[8] = test system: Candida albicans; assay: Minimum inhibitory concentration against Candida albicans was determined
[9] = test system: Streptococcus; assay: Minimum inhibitory concentration against Streptococcus was determined
[10] = Minimum inhibitory concentration against Gram(-) sp. was determined; Range is 32->128 ug/mL
[11] = test system: Staphylococcus aureus; assay: Minimum inhibitory concentration against Staphylococcus aureus smith
[12] = test system: Staphylococcus aureus; assay: Minimum inhibitory concentration against Staphylococcus aureus (MRSA) was determined; Range is 32-64 ug/mL
[13] = test system: Enterococcus faecium; assay: Minimum inhibitory concentration against Enterococcus faecium was determined; Range is […] ug/mL
[14] = test system: Staphylococcus aureus; assay: Minimum inhibitory concentration against Staphylococcus aureus (MSCNS) was determined
[15] = Minimum inhibitory concentration against Gram(-) sp. was determined; Range is […] ug/mL
[16] = test system: Enterococcus faecalis; assay: Minimum inhibitory concentration against Enterococcus faecalis was determined; Range is […] ug/mL
[17] = test system: Staphylococcus aureus; assay: Minimum inhibitory concentration against Staphylococcus aureus (MRCNS) was determined
[18] = test system: Staphylococcus aureus; assay: Minimum inhibitory concentration against Staphylococcus aureus (MSSA) was determined; Range is 32-64 ug/mL
[19] = test system: Streptococcus; assay: Minimum inhibitory concentration against Streptococcus was determined; […]
[20] = test system: Staphylococcus aureus; assay: Minimum inhibitory concentration against Staphylococcus aureus (MSCNS) was determined; Range is 0.5-1 ug/mL
[21] = test system: Staphylococcus aureus; assay: Minimum inhibitory concentration against Staphylococcus aureus (MSSA) was determined; Range is 2-4 ug/mL
[22] = test system: Staphylococcus aureus; assay: Minimum inhibitory concentration against Staphylococcus aureus (MRCNS) was determined; Range is 1-4 ug/mL
[23] = test system: Staphylococcus aureus; assay: Minimum inhibitory concentration against Staphylococcus aureus (MRSA) was determined
[24] = Minimum inhibitory concentration against Gram(-) sp. was determined
[25] = test system: Enterococcus faecalis; assay: Minimum inhibitory concentration against Enterococcus faecalis was determined

C[C@@H](c1ccccc1)[C@@H]1NC(=O)CNC(=O)[C@H](CO)NC(=O)[C@@H]([C@@H](O)[C@@H]2CN=C(N)N2[C@H]2O[C@H](O)[C@@H](O)[C@H](O)[C@@H]2O)NC(=O)[C@H]([C@@H](O)[C@@H]2CN=C(N)N2)NC(=O)[C@@H](Cc2ccc(O[C@H]3O[C@H](CO)[C@@H](O[C@H]4O[C@H](CO)[C@@H](OCc5ccc(OCc6ccccc6)cc5)[C@H](O)[C@@H]4O)[C@H](O)[C@@H]3O)cc2)NC1=O
MIC [1]: 1 µg/mL (≈ 0.677 µM) | ED50 [2]: 0.06 mg/kg | MIC [3]: 1 µg/mL (≈ 0.677 µM) | MIC [4]: 2 µg/mL (≈ 1.35 µM) | MIC [5]: 0.25 µg/mL (≈ 0.169 µM) | MIC [6]: ≤ 0.12 µg/mL | MIC [7]: 2 µg/mL (≈ 1.35 µM) | MIC [8]: > 128 µg/mL | MIC [9]: < 0.12 µg/mL | MIC [10]: 32 µg/mL (≈ 21.7 µM) | MIC [11]: 1 µg/mL (≈ 0.677 µM)

C[C@@H](c1ccccc1)[C@@H]1NC(=O)CNC(=O)[C@H](CO)NC(=O)[C@@H]([C@@H](O)[C@@H]2CN=C(N)N2[C@H]2O[C@H](O)[C@@H](O)[C@H](O)[C@@H]2O)NC(=O)[C@H]([C@@H](O)[C@@H]2CN=C(N)N2)NC(=O)[C@@H](Cc2ccc(O[C@H]3O[C@H](CO)[C@@H](O[C@H]4O[C@H](CO)[C@@H](O)[C@H](O)[C@@H]4OCc4ccc(OCc5ccccc5)cc4)[C@H](O)[C@@H]3O)cc2)NC1=O
MIC [12]: 32 µg/mL (≈ 21.7 µM) | MIC [13]: 16 µg/mL (≈ 10.8 µM) | MIC [14]: 16 µg/mL (≈ 10.8 µM) | MIC [15]: > 128 µg/mL | MIC [8]: 128 µg/mL (≈ 86.6 µM) | MIC [16]: 64 µg/mL (≈ 43.3 µM) | MIC [17]: 32 µg/mL (≈ 21.7 µM) | MIC [18]: 32 µg/mL (≈ 21.7 µM) | MIC [19]: 2 µg/mL (≈ 1.35 µM)

C[C@@H](c1ccccc1)[C@@H]1NC(=O)CNC(=O)[C@H](CO)NC(=O)[C@@H]([C@@H](O)[C@@H]2CN=C(N)N2[C@H]2O[C@H](O)[C@@H](O)[C@H](O)[C@@H]2O)NC(=O)[C@H]([C@@H](O)[C@@H]2CN=C(N)N2)NC(=O)[C@@H](Cc2ccc(O[C@H]3O[C@H](CO)[C@@H](OC4O[C@H](COCc5ccc(OCc6ccccc6)cc5)[C@@H](O)[C@H](O)[C@@H]4O)[C@H](O)[C@@H]3O)cc2)NC1=O (stereo partly specified)
MIC [20]: 0.5 µg/mL (≈ 0.338 µM) | ED50 [2]: 0.25 mg/kg | MIC [21]: 2 µg/mL (≈ 1.35 µM) | MIC [4]: 2 µg/mL (≈ 1.35 µM) | MIC [8]: > 128 µg/mL | MIC [9]: ≤ 0.12 µg/mL | MIC [22]: 1 µg/mL (≈ 0.677 µM) | MIC [23]: 4 µg/mL (≈ 2.71 µM) | MIC [24]: > 128 µg/mL | MIC [25]: 4 µg/mL (≈ 2.71 µM) | MIC [11]: 2 µg/mL (≈ 1.35 µM)
